According to US20260200947A1, “FUSED CYCLIC COMPOUNDS AND USE THEREOF” (Jacobio Pharmaceuticals Co., Ltd., priority 2022, published 2026):
Where two headings read alike, the source gives them in different places.

Assays:
[1] = target: T1, GDP-KRAS G12D (Homo sapiens, UniProt P01116, G12D); test: SOS1 catalyzed nucleotide exchange assay, GDP-KRAS G12D; details: read-out: Biochemical assays, IC50, KRAS G12D GDP, GDP form K-Ras G12D, TR-FRET
[2] = target: T2, GppNp-KRAS G12D (Homo sapiens, UniProt P01116, G12D); test: GTP-K-Ras and cRAF interaction assay, GppNp-KRAS G12D; details: read-out: Biochemical assays, IC50, KRAS G12D GppNp; GppNp-loaded K-Ras G12D, cRAF RBD interaction, HTRF
[3] = test system: SW620 cells (K-Ras G12V); test: Phospho-ERK1/2(THR202/TYR204) HTRF assay, SW620; assay type: cell-based; details: read-out: pERK, IC50, SW620
Experimental: (§1) Each of cells in culture medium was seeded in 96-well plates at density indicated in Table 4 and put in a cell incubator to incubate overnight. The next day, the culture medium was removed and the compound diluted in assay medium was added in each well. […] 10 μL of cell lysates from the 96-well plates were transferred to a 384-well plate (Greiner) containing 2.5 μL/well HTRF® pre-mixed antibodies (Cisbio 64AERPEH). The plate was incubated 4 hours at 25° C. and read HTRF signals on Tecan Spark multimode microplate reader. The data were analyzed using a 4-parameter logistic model to calculate IC50 values.

[4] = test system: AsPC-1 cells (K-Ras G12D)
Experimental: (§2) Each of cells in culture medium was plated in TC-treated 96-well plates at a density indicated in Table 4 and incubated in a cell incubator overnight. The next day, each of compounds was diluted in culture medium and added to the plates. After 6 days incubation in cell incubator, the cell viability was detected by CellTiter-Glo® Cell Viability Assay kit (Promega).

[5] = target: T3, GDP-KRAS G12V (Homo sapiens, UniProt P01116, G12V); test: SOS1 catalyzed nucleotide exchange assay, GDP-KRAS G12V; details: read-out: Biochemical assays, IC50, KRAS G12V GDP, GDP form K-Ras G12V, TR-FRET
[6] = target: T4, GppNp-KRAS G12V (Homo sapiens, UniProt P01116, G12V); test: GTP-K-Ras and cRAF interaction assay, GppNp-KRAS G12V; details: read-out: Biochemical assays, IC50, KRAS G12V GppNp; GppNp-loaded K-Ras G12V, cRAF RBD interaction, HTRF
[7] = test system: SW620 cells (K-Ras G12V)
Experimental: as §2

[8] = Mouse pharmacokinetic study; assay type: in vivo; details: Balb/c mouse (female); for AUC0-24 h / Cl_obs / Cmax / AUC(0-t): plasma; for F: 10 mg/kg po vs 3 mg/kg iv; for AUC(0-t): read-out: AUC0-24 h
Experimental: The purpose of this study was to evaluate the pharmacokinetic properties of compounds in Balb/c mouse (female) following single dose administration. Six mice were needed for each compound and the six mice were divided into two groups (n=3/group), group A and group B. Mice in group A were treated with a single 3 mg/kg dose of compound (iv). Mice in group B were treated with a single 10 mg/kg dose of compound (po). Foreach mouse in group A, blood samples were collected at the time point of 0.083 h 0.5 h, 1 h, 2 h, 4 h, 8 h and 24 h post-dose. For each mouse in group B, blood samples were collected at the time point of 0.25 h, 0.5 h, 1 h, 2 h, 4 h, 8 h and 24 h post-dose. Blood samples were placed on ice until centrifugation to obtain plasma samples. The plasma samples were stored at −80° C. until analysis. The concentration of compound in plasma samples was determined using a LC-MS/MS method.

[9] = test system: Capan-2 cells (K-Ras G12V)
Experimental: as §1

[10] = target: T4, GppNp-KRAS G12V; test: biochemical
[11] = target: T3, GDP-KRAS G12V; test: biochemical
[12] = target: T2, GppNp-KRAS G12D; test: biochemical
[13] = target: T1, GDP-KRAS G12D; test: biochemical
[14] = test system: AGS cells (K-Ras G12D)
Experimental: as §2

[15] = test system: AGS cells (K-Ras G12D); remark: listed apart in the source
Experimental: as §1

[16] = Homo sapiens, SW-620, 2 hours incubation

T2 sequence (P01116 1-169 isoform P01116-2 G12D): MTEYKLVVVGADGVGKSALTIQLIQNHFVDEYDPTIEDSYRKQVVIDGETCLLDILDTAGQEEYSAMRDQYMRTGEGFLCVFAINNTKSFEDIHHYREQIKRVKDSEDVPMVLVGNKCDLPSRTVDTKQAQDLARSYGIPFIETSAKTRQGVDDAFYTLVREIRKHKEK
T1 sequence (P01116 1-169 isoform P01116-2 G12D): as above
T4 sequence (P01116 1-169 isoform P01116-2 G12V): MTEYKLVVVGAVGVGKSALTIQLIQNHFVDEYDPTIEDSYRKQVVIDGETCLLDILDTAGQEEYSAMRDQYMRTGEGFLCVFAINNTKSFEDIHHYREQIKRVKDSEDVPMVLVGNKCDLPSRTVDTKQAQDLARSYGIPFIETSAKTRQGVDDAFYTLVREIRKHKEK
T3 sequence (P01116 1-169 isoform P01116-2 G12V): as above

Row | SMILES | IC50 [1] | IC50 [2] | IC50 [4] | IC50 [5] | IC50 [6] | IC50 [7] | IC50 [9] | other results
1 | C#Cc1c(F)ccc2cc(N)cc(-c3c(Cl)c4c5c(nc(OCC67CCCN6CC(F)C7)nc5c3F)N3CCCOCC3CO4)c12 (single isomer, unassigned) [Compound 11B] | 5.69 nM | 233 nM | 806 nM | 3.92 nM | 311 nM | 117 nM | – | IC50 ([3]; 2 hours incubation): 53.5 nM
2 | N#Cc1c(N)sc2c(F)ccc(-c3c(Cl)c4c5c(nc(OCC67CCCN6CC(F)C7)nc5c3F)N3CCCOCC3CO4)c12 (single isomer, unassigned) [Compound 66B] | 0.983 nM | 4.06 nM | 5.91 nM | 0.924 nM | 8.62 nM | 2.22 nM | 1.94 nM | AUC0-24 h ([8]; 3 mg/kg, iv): 8951 ng·h/mL; Cl_obs ([8]; 3 mg/kg, iv): 5.77 mL/min/kg; F [8]: 10.8%; AUC0-24 h ([8]; 10 mg/kg, po): 3217 ng·h/mL; Cmax ([8]; 10 mg/kg, po): 1175 ng/mL
3 | C#Cc1c(F)ccc2cc(N)cc(-c3nc4c5c(nc(OC[C@@]67CCCN6C[C@H](F)C7)nc5c3F)N3CC(C)COCC3N4C)c12 (single isomer, unassigned) [Compound 103] | 3.45 nM | 214 nM | 180 nM | 1.79 nM | 101 nM | 14.5 nM | – | IC50 ([3]; 2 hours incubation): 10.1 nM
4 | N#Cc1c(N)sc2c(F)ccc(-c3c(F)c4c5c(nc(OC[C@@]67CCCN6C[C@H](F)C7)nc5c3F)N3CCCOC[C@H]3CO4)c12 (single isomer, unassigned) [Compound 163B] | – | – | 14 nM | – | – | 2.15 nM | 6.2 nM | Cl_obs ([8]; 3 mg/kg, iv): 1.86 mL/min/kg; AUC(0-t) ([8]; 3 mg/kg, iv): 27300 ng·h/mL; F [8]: 25.3%; AUC(0-t) ([8]; 10 mg/kg, po): 23000 ng·h/mL; Cmax ([8]; 10 mg/kg, po, read-out: Cmax): 5310 ng/mL; IC50 [10]: 18.3 nM; IC50 [11]: 1.04 nM; IC50 [12]: 8.04 nM; IC50 [13]: 0.879 nM
5 | C#Cc1c(F)ccc2cc(N)cc(-c3nc4c5c(nc(OC[C@@]67CCCN6C[C@H](F)C7)nc5c3F)N3CCCOC[C@H]3CO4)c12 [Compound 1] | – | – | 102 nM | – | – | 9.37 nM | 6.25 nM | Cl_obs ([8]; 3 mg/kg, iv): 6.33 mL/min/kg; AUC(0-t) ([8]; 3 mg/kg, iv): 7990 ng·h/mL; F [8]: 17.2%; AUC(0-t) ([8]; 10 mg/kg, po): 4590 ng·h/mL; Cmax ([8]; 10 mg/kg, po, read-out: Cmax): 1140 ng/mL; IC50 [3, 16]: 4.43 nM
6 | CSc1cccc2cc(O)cc(-c3nc4c5c(nc(OC[C@@]67CCCN6C[C@H](F)C7)nc5c3F)N3CCCOC[C@H]3N4C)c12 [Compound 20] | – | – | 110 nM | – | – | 24.4 nM | 10.3 nM | IC50 [14]: 22.1 nM
7 | C#Cc1c(F)ccc2cc(N)cc(-c3nc4c5c(nc(OC[C@@]67CCCN6C[C@H](F)C7)nc5c3F)N3CCCCC[C@@H]3CO4)c12 [Compound 27A] | 47.8 nM | > 1000 nM | – | 65.1 nM | > 1000 nM | – | – | –
8 | C#Cc1c(F)ccc2cc(N)cc(-c3nc4c5c(nc(OCC67CCCN6CC(F)C7)nc5c3F)N3CCCCCC3CO4)c12 (stereo not drawn) [Compound 27B] | 2.51 nM | 174 nM | 110 nM | 2.69 nM | 563 nM | 16.9 nM | – | IC50 ([3]; 2 hours incubation): 12.4 nM
9 | C#Cc1c(F)ccc2cc(N)cc(-c3nc4c5c(nc(OC[C@@]67CCCN6C[C@H](F)C7)nc5c3F)N3[C@@H](COCC[C@@H]3C)CO4)c12 [Compound 38A] | 0.46 nM | 51.9 nM | 28.7 nM | 0.292 nM | 75.6 nM | 2.64 nM | – | AUC0-24 h ([8]; 3 mg/kg, iv): 4004 ng·h/mL; Cl_obs ([8]; 3 mg/kg, iv): 12.7 mL/min/kg; F [8]: 39.1%; AUC0-24 h ([8]; 10 mg/kg, po): 5213 ng·h/mL; Cmax ([8]; 10 mg/kg, po): 971 ng/mL; IC50 ([3]; 2 hours incubation): 0.648 nM
10 | C#Cc1c(F)ccc2cc(N)cc(-c3nc4c5c(nc(OCC67CCCN6CC(F)C7)nc5c3F)N3C(C)CCOCC3CO4)c12 (stereo not drawn) [Compound 38B] | 1.05 nM | 174 nM | 61.3 nM | 0.397 nM | 685 nM | 5.47 nM | – | IC50 ([3]; 2 hours incubation): 2.59 nM
11 | C#Cc1c(F)ccc2cc(N)cc(-c3nc4c5c(nc(OCC67CCCN6CC(F)C7)nc5c3F)N3CCCCC(F)C3N4C)c12 (stereo not drawn) [Compound 40B] | 1.55 nM | 162 nM | – | 7.01 nM | 705 nM | – | – | –
12 | [2H]C([2H])([2H])N1c2nc(-c3cc(N)cc4ccc(F)c(C#C)c34)c(F)c3nc(OC[C@@]45CCCN4C[C@H](F)C5)nc(c23)N2CCCOC[C@H]21 [Compound 48] | – | – | 26.6 nM | – | – | 2.55 nM | 1.65 nM | IC50 [10]: 55.4 nM; IC50 [11]: 0.595 nM; IC50 [15]: 3.53 nM; IC50 [14]: 3.44 nM; IC50 [12]: 35.8 nM; IC50 [3, 16]: 3.68 nM; IC50 [13]: 0.759 nM
13 | C#Cc1c(F)ccc2cc(N)cc(-c3nc4c5c(nc(OCC67CCCN6CC(F)C7)nc5c3F)N3C(C(F)F)CCOCC3N4C)c12 (stereo not drawn) [Compound 52B] | 3.25 nM | 302 nM | 111 nM | 1.97 nM | 622 nM | 29.5 nM | 2.01 nM | –
14 | C#Cc1c(F)ccc2cc(N)cc(-c3nc4c5c(nc(OC[C@@]67CCCN6C[C@H](F)C7)nc5c3F)N3CCCC[C@@H](Cl)[C@@H]3N4C)c12 [Compound 62A] | 703 nM | > 1000 nM | – | 389 nM | > 1000 nM | – | – | –
15 | C#Cc1c(F)ccc2cc(N)cc(-c3nc4c5c(nc(OC[C@@]67CCCN6C[C@H](F)C7)nc5c3F)N3CCCOCC3N4CCC(F)(F)F)c12 (stereo partly drawn) [Compound 104] | – | – | – | – | – | – | – | IC50 [10]: > 1000 nM; IC50 [11]: 17.6 nM; IC50 [15]: 485 nM; IC50 [12]: > 1000 nM; IC50 [13]: 9.19 nM
16 | C#Cc1c(F)ccc2cc(N)cc(-c3nc4c5c(nc(OC[C@@]67CCCN6C[C@H](F)C7)nc5c3F)N3CC(F)(F)CCC[C@@H]3N4C)c12 [Compound 106A] | 630 nM | > 1000 nM | – | 226 nM | > 1000 nM | – | – | –
17 | C#Cc1c(F)ccc2cc(N)cc(-c3nc4c5c(nc(OC[C@@]67CCCN6C[C@H](F)C7)nc5c3F)N3CCC=C[C@H](F)[C@H]3N4C)c12 [Compound 108A] | 3.32 nM | 106 nM | 62.7 nM | 2.95 nM | 214 nM | 15.8 nM | 8.81 nM | –
18 | C#Cc1c(F)ccc2cc(N)cc(-c3nc4c5c(nc(OC[C@@]67CCCN6C[C@H](F)C7)nc5c3F)N3CCCOCC3N4)c12 (stereo partly drawn) [Compound 113] | – | – | 587 nM | – | – | 45.4 nM | – | IC50 [10]: 513 nM; IC50 [11]: 3.81 nM; IC50 [15]: 33.6 nM; IC50 [14]: 35.1 nM; IC50 [12]: 623 nM; IC50 [3, 16]: 21.4 nM; IC50 [13]: 4.62 nM
19 | C#Cc1c(F)ccc2cc(N)cc(-c3nc4c5c(nc(OC[C@@]67CCCN6C[C@H](F)C7)nc5c3F)N3[C@H]5COC[C@H]5COC[C@H]3N4C)c12 [Compound 123D] | – | – | – | – | – | – | 2.07 nM | IC50 [15]: 2.18 nM
20 | C#Cc1c(F)ccc2cc(N)cc(-c3nc4c5c(nc(OCC67CCCN6CC(F)C7)nc5c3F)N3C(C#N)CCCCC3N4C)c12 (stereo not drawn) [Compound 168B] | 503 nM | > 1000 nM | – | 631 nM | > 1000 nM | – | – | –
21 | C#Cc1c(F)ccc2cc(N)cc(-c3nc4c5c(nc(OCC67CC(=C)CN6CC(OC)C7)nc5c3F)N3CCCOCC3N4C)c12 (stereo not drawn) [Compound 169] | 1.67 nM | 164 nM | 93.6 nM | 3.33 nM | 245 nM | 15.2 nM | 0.778 nM | –
